Measured values: PMC9460038, “Antigiardial Activity of Foeniculum vulgare Hexane Extract and Some of Its Constituents” (Plants, 2022)
≈ marks a conversion by molar mass, not a printed value. Like-named read-outs stand apart in the source and are kept apart here.

Key:
[1] = tested on: G. duodenalis trophozoites; assay: Antigiardial activity, vial microassay (growth inhibition of trophozoites, 24 h); details: for inhibition at 300 µg/mL / IC50: Giardia duodenalis; for inhibition at 300 µg/mL: read-out: % Inhibition at 300 μg/mL; for % Inhibition at 300 μg/mL: G. duodenalis trophozoites; for G. duodenalis IC50 (IC95%): trophozoites, Probit, 95% confidence limits in brackets
Experimental: G. duodenalis strain 0989: IMSS was used. G. duodenalis was cultured in TYI-S-33 media supplemented with bile, as previously described [26]. G. duodenalis trophozoites were sub-cultured three times a week. Parasites used in the assays to determine drug susceptibility were harvested when cultures reached the middle of their logarithmic growth phase.
The concentration of all standard drugs was adjusted to 10 mg/mL. Metronidazole (used as a positive control), and pure compounds were dissolved in (DMSO). All stock solutions were stored at –20 °C until use. Before use in the assays, serial two-fold dilutions of the stock solutions were made in basal TYI medium (without serum). Fifty micro liters of each solution was added into 1 mL glass screw-capped cylindrical vials with a conical interior (Wheaton vial). All vials were filled with 950 μL of a freshly prepared parasite suspension in TYI-S-33 medium plus 10 % bovine serum. G. duodenalis was tested at density of 2 × 10^5 trophozoites/mL. All vials were incubated at 36 °C for 24 h. The vials were then chilled on iced water for 20 min, and the number of trophozoites per milliliter in each tube were counted using a hemocytometer (Neubauer cell-counter chamber) [29]. The percentage of growth inhibition with respect to untreated controls was then determined.
All experiments were performed in triplicate and in at least three independent bioassays (n = 9 cultures for each analyzed compound). The data were analyzed using GraphPad Prism software version 5.0 (USA). The half-maximum inhibitory concentration (IC50) of each drug was calculated by Probit analysis and 95% confidence limits were calculated.

Vero cells = assay: Cytotoxic activity on Vero cell line (Trypan blue, 24 h); type: cell-based; details: for IC50: Chlorocebus sabaeus, read-out: Vero Cells IC50 (IC95%); for IC50 / Vero Cells IC50 (IC95%): 24 h; for Selectivity Index (SI): ratio of IC50 in Vero cells to IC50 in G. duodenalis
Experimental: Cytotoxicity assay was performed on Vero cell line (ATCC CCL-81), as previously described. Briefly, Vero cells were cultivated in Roswell Park Memorial Institute (RPMI) medium supplemented with 10% fetal bovine serum (FBS). […] Each compound was dissolved in dimethyl sulfoxide (DMSO) and sterilized by filtration, and brought to final concentrations of 487, 243.5, 121.75 and 60.875 μg/mL with RPMI medium supplemented with 10% FBS. The cell suspension was adjusted to 1 × 10^4 cells/mL with RPMI medium supplemented with 10% FBS. Cell suspension (200 μL) was placed into a 96-well plate and incubated at 37 °C in a 5% CO2 atmosphere for 24 h. Each compound solution was added to each well containing the Vero cells and incubated for 24 h. The assay was carried out in triplicate. The number of cells were determined in a Neubauer chamber, while the percentage of viable cells was measured with the Trypan blue staining method.
The SI is the ratio of the IC50 concentration in host cells (Vero cells) to that in parasite (G. duodenalis).

[2] = tested on: Mycobacterium tuberculosis H37Rv; parameters: method as in PMID 22797778; details: sensitive strain H37Rv; cited from earlier work
[3] = source not stated; cited from earlier work
[4] = read-out: G. duodenalis IC50 (IC95%), trophozoites, 24 h, Probit, 95% confidence limits in brackets
[5] = Vero cells, Probit, 95% confidence limits in brackets

With `Oc1cccc(O)c1` [1,3-Benzenediol] the inhibition at 300 µg/mL [1] was 56%, the IC50 [1, 4] was 169 µg/mL (≈ 1530 µM) and the IC50 (Vero cells; [5]) was 438 µg/mL (≈ 3980 µM). For the same molecule, the “Selectivity Index (SI)” value (Vero cells) was 2.5.

In the case of `C=C1[C@H]2CC[C@H](C2)C1(C)C` [(1R,4S) (+)-Camphene], the “% Inhibition at 300 μg/mL” value [1] is reported as 61%, the “G. duodenalis IC50 (IC95%)” value [1] is reported as 181.1 (158.1–207.9) μg/mL and the “Vero Cells IC50 (IC95%)” value (Vero cells; [5]) is reported as 494.3 (492.1–496.4) μg/mL.

In the case of `CC1(C)C(=O)[C@]2(C)CCC1C2` [(R) (−)-Fenchone], the “% Inhibition at 300 μg/mL” value [1] is reported as 6.5%.

In the case of `CC(C)=CCC[C@@H](C)CCO` [(R)- (+)-β-Citronellol], the “% Inhibition at 300 μg/mL” value [1] is reported as 38%.

In the case of `CC1(C)C(=O)[C@@]2(C)CCC1C2` [(S) (+)-Fenchone], the “% Inhibition at 300 μg/mL” value [1] is reported as 16%.

With `CC(C)[C@]12CC(=O)[C@H](C)[C@H]1C2` [(−)-α-Tujone] the “% Inhibition at 300 μg/mL” value [1] was 14%.

`C=CCc1ccc(OC)cc1` [Estragole] showed an inhibition at 300 µg/mL [1] of 49%, an IC50 ([1]; read-out: G. duodenalis IC50 (IC95%)) of 150 µg/mL (≈ 1010 µM) and an IC50 (Vero cells; Vero) of 259 µg/mL (≈ 1750 µM). For the same molecule, the “Selectivity Index (SI)” value (Vero cells) was 1.7.

In the case of `CC(=O)OC1C2(C)CCC(C2)C1(C)C` (stereo not shown) [Fenchylacetate], the “% Inhibition at 300 μg/mL” value [1] is reported as 38.5%.

Work on `Cc1ncc([N+](=O)[O-])n1CCO` [Metronidazole, reference compound] yielded an inhibition at 300 µg/mL [1] of 100%, an IC50 [1, 4] of 0.5 µg/mL (≈ 2.92 µM) and an IC50 (Vero cells; [5]) of 83.5 µg/mL (≈ 488 µM).

In the case of `CCCCCCCC/C=C\CCCCCCCC(=O)O` [Oleic acid], the inhibition at 300 µg/mL [1] is reported as 24%.

Molecule `CC(C)(O)C(C)(C)O` [Pinacol] has an inhibition at 300 µg/mL [1] of 2%.

With `CC1=CCC(=C(C)C)CC1` [Terpinolene] the inhibition at 300 µg/mL [1] was 30%.

With `CCCCCC/C=C/C=C/C=O` [Trans, trans-2,4-undecadienal, trans, trans-2,4-undecadienal] the inhibition at 300 µg/mL [1] was 97%, the IC50 [1, 4] was 72.1 µg/mL (≈ 434 µM) and the “G. duodenalis IC50 (IC95%)” value [1] was 72.1 (57.7–90.1) μg/mL. The MIC [2] was 25 µg/mL (≈ 150 µM), the “log P” value [3] was 3.8 and the IC50 (Vero cells; [5]) was 589 µg/mL (≈ 3540 µM). The “Selectivity Index (SI)” value (Vero cells) was 8.1.

In the case of `C/C=C/c1ccc(OC)cc1` [Trans-anethol], the “% Inhibition at 300 μg/mL” value [1] is reported as 17%.

`CCCCCCCCCCC=O` [Undecanal] showed an inhibition at 300 µg/mL [1] of 25%.

For `Cc1ccccc1C(C)C` [o-Cymene], the “% Inhibition at 300 μg/mL” value [1] was 30%.

Molecule `COc1ccc(C=O)cc1` [p-Anisaldehyde] has an inhibition at 300 µg/mL [1] of 67%, an IC50 [1, 4] of 197 µg/mL (≈ 1450 µM) and an IC50 (Vero cells; [5]) of 541 µg/mL (≈ 3970 µM). The “Selectivity Index (SI)” value (Vero cells) was 2.7.

`CC1=CCC(C(C)C)=CC1` [γ-Terpinene] gave an inhibition at 300 µg/mL [1] of 24%.

For (R) (−)-Carvone, the “% Inhibition at 300 μg/mL” value [1] was 66%, the “G. duodenalis IC50 (IC95%)” value [1] was 207.0 (162.2–267.3) μg/mL and the “Vero Cells IC50 (IC95%)” value (Vero cells; [5]) was 350.7 (348.4–353.0) μg/mL.
